What was measured:
[1] = system: P. aeruginosa strain PAO1; experiment: MIC in Mueller-Hinton broth supplemented with 50% human plasma or human serum; type: cell-based, Pseudomonas aeruginosa; conditions: for Minimal inhibitory concentration, Human Plasma: Mueller-Hinton broth supplemented with 50% human plasma; for Minimal inhibitory concentration, Human Serum: Mueller-Hinton broth supplemented with 50% human serum
[2] = system: mature biofilms formed by P. aeruginosa strain ATCC 17647; experiment: Minimal Biofilm Eradicating Concentration (MBEC), Calgary Biofilm Device, crystal violet; type: cell-based, Pseudomonas aeruginosa; conditions: P. aeruginosa ATCC 17647 mature biofilm, >95% biofilm biomass removed

| Substance | Minimal inhibitory concentration, Human Plasma [1] | Minimal inhibitory concentration, Human Serum [1] | MBEC [2] | MBEC ([2]; listed as T4 lysozyme) |
| --- | --- | --- | --- | --- |
| PGLa | >64 µg/mL | >64 µg/mL |  |  |
| T4 lysozyme [Peptide T4LYZ] |  |  | >64 µg/mL | > 64 µg/mL |
| Protegrin 1 | 1 µg/mL | 4 µg/mL |  |  |
| LL-37 | >64 µg/mL | >64 µg/mL |  |  |

Reference: US20210330738A1, “ANTIMICROBIAL, BACTERIOPHAGE-DERIVED POLYPEPTIDES AND THEIR USE AGAINST GRAM-NEGATIVE BACTERIA” (CONTRAFECT CORPORATION, priority 2018, published 2021)
